Consider 1 compound from patent US20240360459A1 (Nankai University, priority 2023, published 2024).

For this assay, the target named is Mtb ATP synthase (Mycobacterium tuberculosis, UniProt P9WPS1+P9WPV7). Nature of the assay: biochemical. In kind it is binding.

On to `COc1nc2ccc(Br)cc2cc1[C@@H](c1ccccc1)[C@@](O)(CCN(C)C)c1cccc2ccccc12` [bedaquiline], for which the Kd – broadly, the concentration at which binding is half-saturated – was found to be 36.5 µM.
